What is called MIC is the lowest concentration found to suppress growth.

≈ marks a conversion by molar mass, not a printed value. Like-named read-outs stand apart in the source and are kept apart here.

What all share (format): cell-based
One experiment relates to M. kansasii SWK. Put plainly: Broth dilution MIC vs M. kansasii SWK. As to conditions: Mycobacterium kansasii, 7H10 broth, pH 5.8. A general note: Dilution methods test growth across graded concentrations, often in twofold steps.
For a further experiment, the system named is M. tuberculosis 102. The experiment is described as follows: Broth dilution MIC vs M. tuberculosis 102.
Another experiment deals with M. avium 101. The experiment is described as follows: Broth dilution MIC vs M. avium 101. As to conditions: Mycobacterium avium, 7H10 broth, pH 5.8.
For another experiment, the system named is M. avium LPR. The experiment is described as follows: Broth dilution MIC vs M. avium LPR. As to conditions: Mycobacterium avium, M. avium LPR (footnote a), 7H10 broth, pH 5.8.
[1] abbreviates: Mycobacterium tuberculosis, 102, pH 5.8, M. tuberculosis 102, 7H10 broth, read-out: MIC.

Regarding `CCCCCCCCCCOC(=O)c1cnccn1` [Example 1], the figures for the MIC against M. kansasii SWK, in the experiment with M. tuberculosis 102 (setting [1]) and in the experiment on M. avium 101 were 0.25 µg/mL (≈ 0.946 µM), 0.5 µg/mL (≈ 1.89 µM) and 32 µg/mL (≈ 121 µM), respectively.

As for `CCCCCCCCCCCCCCCOC(=O)c1cnccn1` [Example 2], the values for the MIC against M. kansasii SWK, in the experiment with M. avium LPR and with M. tuberculosis 102 (setting [1]) were 1 µg/mL (≈ 2.99 µM), 8 µg/mL (≈ 23.9 µM) and 0.06 µg/mL (≈ 0.179 µM), respectively.

As for `O=C(Oc1ccc(F)cc1)c1cnccn1` [Example 3], the MIC stood at 64 µg/mL (≈ 293 µM) against M. kansasii SWK, 32 µg/mL (≈ 147 µM) with M. tuberculosis 102 (setting [1]) and 128 µg/mL (≈ 587 µM) in the experiment on M. avium 101.

Regarding `O=C(Oc1c(Br)cc(Br)cc1Br)c1cnccn1` [Example 4], the MIC amounted to 64 µg/mL (≈ 146 µM) with M. kansasii SWK, 32 µg/mL (≈ 73.2 µM) with M. tuberculosis 102 (setting [1]) and 128 µg/mL (≈ 293 µM) against M. avium 101.

For `COC(=O)c1cnc(Cl)cn1` [Example 5], the values for the MIC in the experiment on M. kansasii SWK, in the experiment with M. avium LPR and with M. tuberculosis 102 (setting [1]) were 2 µg/mL (≈ 11.6 µM), 64 µg/mL (≈ 371 µM) and 4 µg/mL (≈ 23.2 µM), respectively.

For `CCCCCCCCCCOC(=O)c1cnc(Cl)cn1` [Example 6], the MIC against M. kansasii SWK was 0.5 µg/mL (≈ 1.67 µM); in the experiment with M. tuberculosis 102 (setting [1]), 0.5 µg/mL (≈ 1.67 µM); in the experiment on M. avium 101, 32 µg/mL (≈ 107 µM).

As for `CCCCCCCCCCCCCCCOC(=O)c1cnc(Cl)cn1` [Example 7], the MIC is 0.25 µg/mL (≈ 0.678 µM) in the experiment on M. kansasii SWK, 0.13 µg/mL (≈ 0.352 µM) in the experiment on M. tuberculosis 102 (setting [1]) and over 16 µg/mL against M. avium 101.

Consider `CCCCCCC(C)OC(=O)c1cnc(Cl)cn1` (stereo not drawn) [Example 8], for which the results for the MIC against M. kansasii SWK, with M. tuberculosis 102 (setting [1]) and in the experiment on M. avium 101 were under 0.25 µg/mL, under 0.25 µg/mL and 32 µg/mL (≈ 118 µM), respectively.

For `COCCOCCOC(=O)c1cnc(Cl)cn1` [Example 9], the MIC against M. kansasii SWK is 2 µg/mL (≈ 7.67 µM); in the experiment with M. tuberculosis 102 (setting [1]), 2 µg/mL (≈ 7.67 µM); against M. avium 101, 64 µg/mL (≈ 246 µM).

Regarding `CCOCCOCCOC(=O)c1cnc(Cl)cn1` [Example 10], the MIC with M. kansasii SWK stood at 4 µg/mL (≈ 14.6 µM); in the experiment with M. tuberculosis 102 (setting [1]) it was 1 µg/mL (≈ 3.64 µM); against M. avium 101, 64 µg/mL (≈ 233 µM).

For `CCCCOCCOCCOC(=O)c1cnc(Cl)cn1` [Example 11], the MIC stood at 2 µg/mL (≈ 6.61 µM) against M. kansasii SWK, 0.5 µg/mL (≈ 1.65 µM) in the experiment with M. tuberculosis 102 (setting [1]) and 64 µg/mL (≈ 211 µM) in the experiment with M. avium 101.

In the case of `COCCOCCOCCOC(=O)c1cnc(Cl)cn1` [Example 12], the MIC in the experiment with M. kansasii SWK was 8 µg/mL (≈ 26.3 µM); in the experiment on M. tuberculosis 102 (setting [1]), 2 µg/mL (≈ 6.56 µM); with M. avium 101 it was 64 µg/mL (≈ 210 µM).

`CCCCCCOC(=O)c1cnc(Cl)cn1` [Example 13]: the minimum inhibitory concentration (MIC) was under 0.03 µg/mL in the experiment with M. kansasii SWK, 0.13 µg/mL (≈ 0.536 µM) in the experiment on M. tuberculosis 102 (setting [1]) and 32 µg/mL (≈ 132 µM) against M. avium 101.

On to `CCCCCCCCOC(=O)c1cnc(Cl)cn1` [Example 14], for which the MIC in the experiment with M. kansasii SWK is under 0.03 µg/mL; with M. tuberculosis 102 (setting [1]) it was 0.06 µg/mL (≈ 0.222 µM); with M. avium 101, 16 µg/mL (≈ 59.1 µM).

In the case of `CCCOC(=O)c1cnc(Cl)cn1` [Example 15], the MIC in the experiment on M. kansasii SWK worked out at 0.25 µg/mL (≈ 1.25 µM); in the experiment with M. tuberculosis 102 (setting [1]), 0.06 µg/mL (≈ 0.299 µM); in the experiment on M. avium 101, 16 µg/mL (≈ 79.8 µM).

As for `CCCCCCC(CCCCCC)OC(=O)c1cnc(Cl)cn1` [Example 16], the MIC against M. kansasii SWK was determined as 0.5 µg/mL (≈ 1.47 µM); with M. tuberculosis 102 (setting [1]) it was 0.25 µg/mL (≈ 0.733 µM); with M. avium 101 it was 16 µg/mL (≈ 46.9 µM).

On to `CCCCCCCOC(=O)c1cnc(Cl)cn1` [Example 18], for which the MIC against M. kansasii SWK is under 0.03 µg/mL; with M. tuberculosis 102 (setting [1]), 0.06 µg/mL (≈ 0.234 µM); in the experiment on M. avium 101, 8 µg/mL (≈ 31.2 µM).

Turning to `CCCCCCCCC(C)OC(=O)c1cnc(Cl)cn1` (stereo not drawn) [Example 19], the MIC worked out at 0.13 µg/mL (≈ 0.435 µM) against M. kansasii SWK, 0.03 µg/mL (≈ 0.1 µM) in the experiment on M. tuberculosis 102 (setting [1]) and 32 µg/mL (≈ 107 µM) in the experiment on M. avium 101.

On to `CCCCCCCCCOC(=O)c1cnc(Cl)cn1` [Example 20], for which the MIC in the experiment with M. kansasii SWK was under 0.13 µg/mL; with M. tuberculosis 102 (setting [1]), under 0.03 µg/mL; in the experiment on M. avium 101, 32 µg/mL (≈ 112 µM).

As for `CCCCCCC(C)(C)OC(=O)c1cnc(Cl)cn1` [Example 21], the MIC worked out at 1 µg/mL (≈ 3.51 µM) with M. kansasii SWK, 0.25 µg/mL (≈ 0.878 µM) in the experiment with M. tuberculosis 102 (setting [1]) and 64 µg/mL (≈ 225 µM) against M. avium 101.

Compound `CCCCCCC(C)(C)OC(=O)c1cnc(Cl)cn1` [Example 22] displayed an MIC in the experiment on M. tuberculosis 102 (M. tuberculosis 102, 7H10 broth, pH 5.8) of 0.13 µg/mL (≈ 0.456 µM).

Take `COC(=O)c1cnc(F)cn1` [Example 23]: the MIC turned out to be 8 µg/mL (≈ 51.2 µM) against M. kansasii SWK, 4 µg/mL (≈ 25.6 µM) with M. tuberculosis 102 (setting [1]) and 64 µg/mL (≈ 410 µM) with M. avium 101.

As to `CCCCCC(C)OC(=O)c1cnc(Cl)cn1` (stereo not drawn) [Example 24], the values for the MIC in the experiment on M. kansasii SWK, with M. tuberculosis 102 (setting [1]) and against M. avium 101 were under 0.13 µg/mL, 0.06 µg/mL (≈ 0.234 µM) and 32 µg/mL (≈ 125 µM), respectively.

In the case of `CCCCCCCCCCCOC(=O)c1cnc(Cl)cn1` [Example 25], the MIC in the experiment with M. kansasii SWK was 0.06 µg/mL (≈ 0.192 µM); with M. tuberculosis 102 (setting [1]), 0.25 µg/mL (≈ 0.799 µM); against M. avium 101 it was 16 µg/mL (≈ 51.1 µM).

Take `CCCCCOC(=O)c1cnc(Cl)cn1` [Example 26]: the MIC in the experiment on M. kansasii SWK was determined as 0.03 µg/mL (≈ 0.131 µM); in the experiment on M. tuberculosis 102 (setting [1]), 0.06 µg/mL (≈ 0.262 µM); against M. avium 101, 32 µg/mL (≈ 140 µM).

As to `CCCCCCCCCCOC(=O)c1cnc(F)cn1` [Example 27], the MIC in the experiment with M. kansasii SWK came to 1 µg/mL (≈ 3.54 µM); with M. tuberculosis 102 (setting [1]), 2 µg/mL (≈ 7.08 µM); in the experiment on M. avium 101 it was 32 µg/mL (≈ 113 µM).

With `CCCCCCOC(=O)c1cnc(F)cn1` [Example 28], the MIC against M. kansasii SWK is 8 µg/mL (≈ 35.4 µM); against M. avium 101, 64 µg/mL (≈ 283 µM).

Take `CCCCCCC(C)OC(=O)c1cnc(F)cn1` (stereo not drawn) [Example 29]: the results for the MIC against M. kansasii SWK, with M. tuberculosis 102 (setting [1]) and against M. avium 101 were 0.03 µg/mL (≈ 0.118 µM), 2 µg/mL (≈ 7.86 µM) and 32 µg/mL (≈ 126 µM), respectively.

For `O=C(OCc1ccccc1)c1cnc(Cl)cn1` [Example 30], the MIC was 1 µg/mL (≈ 4.02 µM) against M. kansasii SWK, 1 µg/mL (≈ 4.02 µM) in the experiment on M. tuberculosis 102 (setting [1]) and 8 µg/mL (≈ 32.2 µM) in the experiment with M. avium 101.

As to `CCCCOC(=O)c1cnc(Cl)cn1` [Example 31], the figures for the MIC against M. kansasii SWK, with M. tuberculosis 102 (setting [1]) and against M. avium 101 were under 1 µg/mL, 0.25 µg/mL (≈ 1.16 µM) and 64 µg/mL (≈ 298 µM), respectively.

For the origin of these results see US5643912A, “Pyrazinoic acid esters as anti-mycobacterium avium agents” (The Research Foundation of State University of NY, priority 1996, dated 1997).
